Experimental data: patent publication US6399629B1, “Efflux pump inhibitors” (priority 1998, dated 2002)
Structures can show the parent of a compound that is named as a salt.

Tested on: Pseudomonas aeruginosa PAM1001
Test: microbe, parasite or virus in culture
Format: cell-based
Details: for Inhibition (%) of growth of P. aeruginosa PAM1001: Levofloxacin 0.25 μg/mL; for inhibition at 2.5 µg/mL / inhibition at 5 µg/mL / inhibition at 10 µg/mL / inhibition at 20 µg/mL / inhibition at 40 µg/mL: Pseudomonas aeruginosa, PAM1001, read-out: Inhibition (%) of growth of P. aeruginosa PAM1001
Experimental: For compounds labeled with the prefix ‘D’, potentiation is measured by inhibition of growth of Pseudomonas aeruginosa PAM1001 at varying concentrations of efflux pump inhibitors (EPIs) in the presence of levofloxacin (0.25 microg/mL). Bacteria are grown in Mueller Hinton Broth (MHB, Difco) with an initial inoculum of 1×10^6 CFU/mL. Kinetics of bacterial growth is monitored, during 18 h of incubation at 37° C., by measurement of the culture absorbance at 650 nm using a 96-well plate spectrophotometer (SpectraMax, Molecular Devices). The inhibitory effect of EPIs is expressed as a percentage of growth inhibition compared to a control bacterial culture grown in the presence of 0.25 microg/mL levofloxacin but without EPIs.

[1] = Concentration of Compound 2.5 μg/mL
[2] = Concentration of Compound 5 μg/mL
[3] = Concentration of Compound 10 μg/mL
[4] = Concentration of Compound 20 μg/mL
[5] = Concentration of Compound 40 μg/mL

Molecule | Inhibition (%) of growth of P. aeruginosa PAM1001 [1] [%] | Inhibition (%) of growth of P. aeruginosa PAM1001 [2] [%] | Inhibition (%) of growth of P. aeruginosa PAM1001 [3] [%] | Inhibition (%) of growth of P. aeruginosa PAM1001 [4] [%] | Inhibition (%) of growth of P. aeruginosa PAM1001 [5] [%] | inhibition at 2.5 µg/mL [%] | inhibition at 5 µg/mL [%] | inhibition at 10 µg/mL [%] | inhibition at 20 µg/mL [%] | inhibition at 40 µg/mL [%]
trans-4-Glycylamino-L-Proline 3-Biphenylamide Dihydrochloride [Compound D306] | 19 | 7 | 93 | 100 | 99 |  |  |  |  | 
Cl.Cl.Cl.NCC(=O)N[C@H]1CN[C@H](C(=O)Nc2nc(-c3ccccc3)cs2)C1 (relative stereo) [Compound D326, trans 4GlycylaminoL-Proline 4-Phenylthiazol-2-ylamide Trihydrochloride] | 18 | 19 | 17 | 13 | 74 |  |  |  |  | 
NCC(=O)N[C@H]1CN[C@H](C(=O)Nc2ccc(Cc3ccccc3)cc2)C1 [Compound D308, trans-4-Glycylamino-L-Proline 4-Benzylphenylamide Dihydrochloride] |  |  |  |  |  | 16 | 14 | 98 | 100 | 100
NCC(=O)N[C@H]1CN[C@H](C(=O)N[C@H](CCc2ccccc2)C(=O)Nc2ccc3c(c2)CCC3)C1 [Compound D203, trans-4-Glycylamino-L-Prolyl-D-Homophenylalanine 5-Indanylamide Dihydrochloride] |  |  |  |  |  | 18 | 17 | 100 | 100 | 100
NCC(O)C[C@H](N)C(=O)N1C[C@H](NC(=O)CCCc2ccccc2)C[C@H]1C(=O)Nc1ccc2c(c1)CCC2 (stereo partly drawn) [Compound D125, 4-Hydroxy-L-Ornithyl-trans-4-(4-Phenylbutanoyl)amino-L-Proline 5-Indanylamide Dihydrochloride] |  |  |  |  |  | 15 | 100 | 100 | 100 | 100
N[C@H]1CN[C@H](C(=O)N[C@H](CCc2ccccc2)C(=O)Nc2cnc3ccccc3c2)C1 [Compound D202, trans-4-Amino-L-Prolyl-D-Homophenylalanine 3-Quinolylamide Trihydrochloride] |  |  |  |  |  |  |  |  | 21 | 86
CNCC(=O)N[C@H]1CN[C@H](C(=O)N2C[C@H](NC(=O)[C@H](O)CCc3ccccc3)C[C@H]2C(=O)Nc2cnc3ccccc3c2)C1.Cl.Cl.Cl (relative stereo) [Compound D106] | 19 | 19 | 20 | 19 | 100 |  |  |  |  | 
trans-4-Glycylamino-L-Prolyl-4-(2-Chloro-5-Methylphenoxy)-piperidine Dihydrochloride [Compound D416] | 21 | 11 | 87 | 99 | 99 |  |  |  |  | 
Cl.Cl.Cl.NCC(=O)N[C@@H]1CCN[C@H](C(=O)N2C[C@H](NC(=O)[C@H](O)CCc3ccccc3)C[C@H]2C(=O)Nc2cnc3ccccc3c2)C1 (relative stereo) [Compound D115, cis-4-Glycylamino-L-Pipecolinoyl-trans-4-((R)-2-Hydroxy-4-Phenylbutyrylamino)-L-Profine 3-Quinolylamide Trihydrochloride] | 15 | 16 | 8 | 50 | 100 |  |  |  |  | 
NCC(=O)N[C@H]1CN[C@H](C(=O)Nc2ccc(Oc3ccccc3)cc2)C1 [Compound D301, trans-4Glycylamino-L-Proline 4-Phenoxyphenylamide Dihydrochloride] |  |  |  |  |  | 17 | 14 | 81 | 99 | 99
NCC(=O)N[C@H]1CN[C@H](COc2cccc(-c3ccccc3)c2)C1 [Compound D502, (2S,4R)-4-Glycylamino-2-(3-Biphenyloxy)methyl-pyrrolidine Dihydrochloride] |  |  |  |  |  | 13 | 88 | 99 | 100 | 100
NCCC1CN[C@H](C(=O)N2C[C@H](NC(=O)[C@H](O)CCc3ccccc3)C[C@H]2C(=O)Nc2cnc3ccccc3c2)C1 (stereo partly drawn) [Compound D110, 4-(2-Aminoethyl)-Prolyl-trans-4-((R)-2-Hydroxy-4-Phenylbutyrylamino)-L-Proline 3-Quinolylamide Trihydrochloride] |  |  |  |  |  | 20 | 20 | 100 | 100 | 100
NCC(=O)N[C@H]1CN[C@H](C(=O)Nc2ccc(Oc3ccc(Cl)cc3)cc2)C1 [Compound D303, trans-4-Glycylamino-L-Proline 4-(4′-Chlorophenoxy)-phenylamide Dihydrochloride] |  |  |  |  |  | 18 | 91 | 100 | 100 | 99
NCC(=O)N[C@@H]1CN[C@H](C(=O)N2C[C@H](NC(=O)[C@H](O)CCc3ccccc3)C[C@H]2C(=O)Nc2cnc3ccccc3c2)C1 (mixture of isomers) [Compound D104, cis-4-Glycylamino-L-Prolyl-trans-4-((R)-2-Hydroxy-4-Phenylbutyrylamino)-L-Proline 3-Quinolylamide Trihydrochloride] |  |  |  |  |  | 18 | 19 | 14 | 62 | 100
Cc1c(Cl)cccc1N1CCN(C(=O)[C@H]2C[C@H](NC(=O)[C@@H](O)CN)CN2)CC1 [Compound D402, 1-[trans-4-((2S)-3-Amino-2-Hydroxypropionylamino)-D-Prolyl]-4-(3-Chloro-2-Methylphenyl)piperazine Dihydrochloride] |  |  |  |  |  | 19 | 71 | 99 | 100 | 101
Cl.Cl.NCC(=O)N[C@H]1CN[C@H](COc2ccc(-c3ccccc3)cc2)C1 [Compound D501, (2S,4R)-4-Glycylamino-2-(4-Biphenyloxy)-methylpyrrolidine Dihydrochloride] | 1 | 98 | 100 | 100 | 98 |  |  |  |  | 
NCC(=O)N[C@H]1CN[C@H](C(=O)N2CCN(c3ccccc3Cl)CC2)C1 [Compound D405, 1-(trans-4-Glycylamino-L-Prolyl)-4-(2-Chlorophenyl)-piperazine Dihydrochloride] |  |  |  |  |  | 20 | 19 | 16 | -11 | 58
NCCS(=O)(=O)N[C@H]1CN[C@H](C(=O)Nc2ccc(Oc3ccccc3)cc2)C1 [Compound D322, trans-4-(2-Aminoethylsulfonylamino)-L-Proline 4-Phenoxyphenylamide Dihydrochloride] |  |  |  |  |  | 19 | 19 | 17 | 99 | 100
NCC(=O)N[C@@H]1CN[C@@H](COc2ccc(-c3ccccc3)cc2)C1 [Compound D503, (2R,4S)-4-Glycylamino-2-(4-Biphenyloxy)methyl-pyrrolidine Dihydrochloride] |  |  |  |  |  | 22 | 15 | 100 | 100 | 100
NCC(=O)N[C@H]1CN[C@H](C(=O)Nc2ccc(SCc3ccccc3)cc2)C1 [Compound D320, trans-4-Glycylamino-L-Proline 4-Benzylthiophenyl-amide Dihydrochloride] |  |  |  |  |  | 23 | 21 | 97 | 100 | 100
NCC(=O)N[C@@H]1CN[C@@H](C(=O)N2CCN(Cc3ccccc3)C[C@H]2CCc2ccccc2)C1 [Compound D409, (2R)-4-Benzyl-1-(trans-4-Glycylamino-D-Prolyl)-2-Phenethylpiperazine Trihydrochloride] |  |  |  |  |  | 22 | 16 | 99 | 100 | 100
Cl.Cl.NCC(=O)N[C@H]1CN[C@H](C(=O)NCc2ccc(-c3ccccc3)cc2)C1 (relative stereo) [Compound D316, trans-4-Glycylmino-L-Proline 4-Phenylbenzylamide Dihydrochloride] | 20 | 20 | 21 | 82 | 100 |  |  |  |  | 
